How the values were obtained:
leukemia cells = experiment: Viability of leukemia cells after drug treatment; details: data not shown
[1] = tested on: PBMNCs from HLA-A*24:02-positive healthy donor; details: PBMNCs pretreated for 72 hours, 51Cr release
Protocol: (§1) PL21 and HL60 cells and PBMNCs from HD were cultured in AIM-V medium (Life Technologies) supplemented with 10% human serum (Lonza, Walkersville, MD) in 6-well culture plates and 200 nM of 5-aza-2′-deoxycytidine (Sigma-Aldrich) was added every 24 hours for 72 hours.
(§2) The cytotoxic activity of the CTLs was measured using a standard ^51Cr release assay. Target cells were labeled with 50 μCi of ^51Cr (PerkinElmer Inc., Waltham, MA) for 60 min at 37°C. CIR-A24 cells were then incubated with 5 μg/mL of peptide for 1 hour. For the blocking assay, KMS21 cells were treated with mouse anti-HLA class I antibody (w6/32; eBioscience, San Diego, CA) or mouse IgG isotype antibody (eBioscience). The target cells were mixed with effector cells. After 4 hours, supernatants were transferred to LumaPlates (PerkinElmer) and allowed to air dry in a hood overnight. Plates were sealed and counted in MicroBeta® Trilux instrument (PerkinElmer). Percent specific lysis for ^51Cr release was calculated as [(experimental ^51Cr release—spontaneous ^51Cr release) / (maximum ^51Cr release—spontaneous ^51Cr release)] x 100.

PBMNCs from HD = experiment: PEPP2 expression after demethylating agent, healthy donor PBMNCs; type: cell-based, human; details: PBMCs from healthy donor, 200 nM for 72 hours
HL60 and PL21 cells = experiment: PEPP2 expression after demethylating agent, leukemia cell lines (RT-PCR, quantitative PCR, immunohistochemistry); type: cell-based
PL21 cells [2] = details: flow cytometry
PL21 cells [3] = experiment: 51Cr release cytotoxicity of PEPP2-specific CTLs against drug-pretreated PL21 cells; details: PL21 pretreated for 72 hours
Protocol: as §1, §2

HLA-A24 [4] = experiment: Peptide stability assay on CIR-A24 cells (brefeldin A); type: binding; details: 50 μg/mL peptide + 5 μg/mL β2-microglobulin, 24 hours, then 50 μg/mL brefeldin A for 4 hours, FITC anti-HLA-A24 staining, MFI with peptide / MFI without peptide, average of the two assays
Protocol: (§3) We assessed the binding ability of candidate peptides to HLA-A24 as described previously. CIR-A24 cells were incubated with 50 μg/mL peptides and 5μg/ mL of β2-microglobulin in serum-free media for 24 hours. After washing with PBS, the expression of HLA-A24 was measured by staining the cells with FITC-conjugated anti-HLA-A24 antibody (Mitsubishi-Kagaku, Tokyo, Japan). We also checked the stability of candidate peptides bound to the HLA-A24 molecule. CIR-A24 cells were incubated with 50 μg/mL peptides and 5 μg/mL of β2-microglobulin in serum-free media for 24 hours, followed by addition of 50 μg/ mL of brefeldin A (Sigma-Aldrich) for 4 hours. The expression of HLA-A24 was detected by staining the cells with FITC-conjugated anti-HLA-A24 antibody (Mitsubishi). MFI (mean fluorescence intensity) ratio was calculated as follows; MFI of CIR-A24 pulsed with each candidate peptide / MFI of CIR-A24 without peptide.

[5] = tested on: HLA-A*24:02 positive lymphocytes isolated from healthy donors; experiment: Induction of PEPP2 peptide-specific CTLs from PBMCs of healthy donors; type: cell-based, human; details: HLA-A*24:02 positive healthy donor lymphocytes stimulated with peptide-pulsed DC and PHA blasts; IFN-γ ELISpot
Protocol: CTLs were generated by in vitro stimulation with peptide-pulsed autologous dendritic cells and phytohemagglutinin (PHA) blasts. Briefly, PBMNCs were isolated from whole blood of HLA-A*24:02-positive HD by Ficoll density gradient centrifugation. Dendritic cells (DC) were generated by isolating CD14^+ cells using a MACS separation system (Miltenyi Biotec, Bergisch Gladbach, Germany). The CD14^+ cells were cultured in AIM-V medium supplemented with 10% human serum, 100 ng/mL of IL-4 (R&D Systems) and 100 ng/mL of GM-CSF (R&D Systems) for 5 days, then 20 ng/mL of TNF-α (R&D Systems) was added to generate DC. PHA blasts were derived from CD14^- cells by culturing in AIM-V medium supplemented with 10% human serum, 100 units of IL-2 and 1μ g/mL of PHA for 2 days. The DC or PHA blasts were pulsed with 50μg/L of peptide at room temperature for 3 hours and then irradiated (mediXtec, Chiba, Japan). On day 0, CD14^- cells were stimulated with irradiated peptide-pulsed DC in AIM-V medium with 10% human serum supplemented with 10 ng/mL of IL-7 (R&D Systems), then 50 ng/mL of IL-2 was added every 2 to 3 days. The cells were stimulated weekly with irradiated peptide-pulsed autologous PHA blasts, then CD3^+CD8^+ cells were purified with immunomagnetic beads (Miltenyi Biotec).
IFN-γ secretion of CTLs in response to target cells was detected using ELISpot assay. Briefly, effector cells were incubated with target cells in plates coated with anti-IFNγ antibody (1-D1K; Mabtech Inc., Cincinnati, OH). After incubation for 20 hours, biotinylated antibody specific for IFN γ (7-B6-1; Mabtech) was added for 2 hours at room temperature and then streptavidin-alkaline phosphatase (Mabtech) was added for 1 hour. To develop spots, nitroblue tetrazolium and 5-bromo-4-chloro-3-indolyl phosphate (Biorad) were added and the color development was stopped by rinsing with distilled water. The resulting spots were counted using a CTL-ImmunoSpot® analyzer (Cellular Technology Ltd., Shaker Heights, OH)

HLA-A24 [6] = experiment: Peptide binding assay on CIR-A24 cells; details: 50 μg/mL peptide + 5 μg/mL β2-microglobulin, serum-free media, 24 hours, FITC anti-HLA-A24 staining, MFI with peptide / MFI without peptide, average of the two assays
Protocol: as §3

CIR-A24 cells = experiment: 51Cr release cytotoxicity assay of PEPP2-specific CTLs against peptide-pulsed cells; type: cell-based
Source text: The target cells were mixed with effector cells.

Row | Compound | Stability MFI ratio (HLA-A24 [4]) | Binding MFI ratio (HLA-A24 [6]) | other results
1 | Nc1ncn([C@H]2C[C@H](O)[C@@H](CO)O2)c(=O)n1 [5-aza-2′-deoxycytidine] | – | – | Viability of leukemia cells after treatment with the drug (leukemia cells): more than 90%; Recognition of treated normal PBMNCs by PEPP2-specific CTLs [1]: didn’t recognize; PEPP2 gene and protein expression after treatment (PBMNCs from HD): did not change; PEPP2 gene expression after treatment (HL60 and PL21 cells; HL60 and PL21, 200 nM for 72 hours, RT-PCR / quantitative PCR): significantly up-regulated; PEPP2 protein expression after treatment (HL60 and PL21 cells; treated vs untreated cells, 200 nM for 72 hours, immunohistochemistry): increased; HLA-class I expression after treatment (PL21 cells [2]): up-regulated; PD-L1 expression level after treatment (PL21 cells [2]; confirmed by quantitative PCR): slightly up-regulated; Cytotoxicity of PEPP2-specific CTLs against treated cells compared with non-treated cells (PL21 cells [3]): enhanced cytotoxicity
2 | AFTPIQLQEL [PEPP2^140-149] | 0.851 | 1.363 | Induction of PEPP2-specific CTL [5]: could not induce PEPP2-specific CTL
3 | CSQYMTSSL [PEPP2^7-15] | 1.041 | 1.103 | –
4 | DMNAMVSL [PEPP2^27-35] | 0.831 | 0.936 | –
5 | DYFWDHSHS [PEPP2^231-239] | 0.869 | 0.889 | –
6 | EFGPFPFVI [PEPP2^271-279] | 1.201 | 1.153 | Lysis of peptide-pulsed C1R-A24 cells by PEPP2-specific CTLs (CIR-A24 cells; 4 hours, targets pulsed with 5 μg/mL peptide): could lyse C1R-A24 cells only when the target cells were pulsed; Dose dependence of recognition by CTLs (CIR-A24 cells; CIR-A24 pulsed with various concentrations of peptide, E/T ratio of 30): peptide dose-dependent; Induction of PEPP2-specific CTL [5]: could induce PEPP2-specific CTL
7 | ERIFQREQF [PEPP2^150-158] | 0.690 | 0.747 | –
8 | FTPLQLQEL [PEPP2^141-149] | 0.687 | 0.860 | –
9 | FVIVPSFTF [PEPP2^277-285] | 0.928 | 1.181 | –
10 | GGAGVPGHL [PEPP2^81-89] | 0.785 | 0.852 | –
11 | KWRRHQRAL [PEPP2^188-196, PEPP2-derived candidate peptide …] | 0.714 | 0.772 | –
12 | LQDMNAMVL [PEPP2^25-33] | 0.761 | 0.768 | –
13 | LQLQELERI [PEPP2^144-152] | 0.738 | 0.695 | –
14 | MPPFPPPSL [PEPP2^246-254] | 0.914 | 0.985 | –
15 | PFPPPSLPL [PEPP2^248-256] | 0.926 | 1.069 | –
16 | QCSQYMTSL [PEPP2^6-14] | 0.614 | 0.724 | –
17 | QGTAAGEKL [PEPP2^52-60] | 0.938 | 0.820 | –
18 | QLQELERIF [PEPP2^145-153] | 1.071 | 0.767 | –
19 | QYMTSLLSPA [PEPP2^9-18] | 0.865 | 1.354 | –
20 | QYSRPQGAV [PEPP2^117-125] | 0.977 | 0.882 | –
21 | RALMARNML [PEPP2^194-202] | 0.599 | 0.954 | –
22 | RPQGAVGGL [PEPP2^120-128] | 0.754 | 0.746 | –
23 | SLPLPLMLL [PEPP2^253-261] | 1.103 | 1.277 | Induction of PEPP2-specific CTL [5]: could not induce PEPP2-specific CTL
24 | TYGPVFMCL [EBV, reference compound] | 1.320 | 1.204 | –
25 | VHAFTPLQL [PEPP2^138-146] | 0.748 | 0.992 | –
